{
  "source": "patent US20250032483A1",
  "about": "“COMPOSITIONS AND METHODS FOR TREATING PAIN” (ICAHN SCHOOL OF MEDICINE AT MOUNT SINAI, priority 2021, published 2025)",
  "key": {"[1]": {"test_system": "CFA model of peripheral inflammation in female mice", "assay": "Hargreaves' thermal beam assay, CFA model", "format": "in vivo", "details": "5 mg/kg i.p. QD, vs saline", "experimental": "(§1) The inventors used the CFA model of peripheral inflammation in female mice to determine the impact of ILF3 inhibition in sensory hypersensitivity behaviors associated with inflammatory pain states. […] To identify any immediate analgesic effects of YM155 under local, peripheral inflammation conditions, the inventors first tested CFA-injected mice in the Von Frey and Hargreave's assays at 30 minutes post-drug administration.\n(§2) The inventors also tested whether YM155 had sustained effects on sensory hypersensitivity after the expected window of activity (approximately 24 hours post-injection, based on a ˜one hour half-life in intravenously-treated mice).\n(§3) For studies using models of peripheral inflammation, two-to three-month old mice received 30 μL left hindpaw injections of Complete Freund's Adjuvant (CFA: diluted 1:1 in saline) or IFNB injections (300 U per 25 μL), as described previously. For studies using the post-operative incision model, two-to three-month-old mice received an incision from the posterior plantar surface of the hindpaw to the middle of the paw pads, in which dermis and superficial muscle was cut and dermis was sutured afterwards. […]\nThe CFA model induces thermal hypersensitivity for 10-14 days on average. […] Three measurements were recorded and averaged for each hindpaw, with each measurement taking place at least two minutes apart."}, "[2]": {"test_system": "CFA model of peripheral inflammation in female mice", "assay": "Von Frey assay, CFA model", "format": "in vivo", "details": "5 mg/kg i.p. QD, vs saline", "experimental": "as §1, §2\nFor studies using models of peripheral inflammation, two-to three-month old mice received 30 μL left hindpaw injections of Complete Freund's Adjuvant (CFA: diluted 1:1 in saline) or IFNB injections (300 U per 25 μL), as described previously. […]\n(§4) Hamsters/mice were placed on a raised grid platform in plastic containers and were allowed to habituate to their environment for a minimum of 10 minutes. Afterwards, filaments of ascending forces were applied to the left hindpaw and responses were recorded. […] Progression to the next filament was determined by recording of positive or negative responses for three out of five applications with each filament. […]"}, "[3]": {"assay": "Body weight during YM155 administration, CFA model", "format": "in vivo, mice", "details": "5 mg/kg i.p. QD; first 9 days of treatment", "experimental": "as §2\nFor studies using models of peripheral inflammation, two-to three-month old mice received 30 μL left hindpaw injections of Complete Freund's Adjuvant (CFA: diluted 1:1 in saline) or IFNB injections (300 U per 25 μL), as described previously. For studies using the post-operative incision model, two-to three-month-old mice received an incision from the posterior plantar surface of the hindpaw to the middle of the paw pads, in which dermis and superficial muscle was cut and dermis was sutured afterwards. CFA and paw incision groups of mice received daily intraperitoneal (i.p.) injections of saline (vehicle) or YM155 (Tocris Biosciences), an Interleukin Enhancer Binding Factor 3 (ILF3) inhibitor (2.5 or 5 mg/kg diluted in saline)."}, "[4]": {"test_system": "interferon-induced mechanical hypersensitivity in mice", "assay": "Von Frey assay, hindpaw IFNβ injection model", "format": "in vivo", "from_the_text": "While the CFA model promotes both peripheral interferon and cytokine signaling. the inventors wanted to investigate the role of ILF3 inhibition in a model of isolated interferon signaling to better understand its role in virus-induced hypersensitivity. For this, the inventors implemented hindpaw interferon β (IFNβ) injections. The inventors compared mechanical thresholds between a group of female mice that received no IFNβ injection and daily saline (Naïve-Saline), a group that received a single IFNβ injection and daily saline (IFNβ-Saline). and a group that received a single IFNβ injection and immediate daily administration of YM155 (5 mg/kg i.p. BID: IFNβ-YM155). […] The inventors therefore performed an experiment in which a Naïve-Saline and IFNβ-Saline group began receiving YM155 (2.5 mg/kg i.p. BID) after mechanical thresholds were taken one day after intraplantar injections. […] ILF3 inhibition is effective at suppressing interferon-induced hypersensitivity in both mouse sexes. […]\nas §4"}, "[5]": {"test_system": "paw incision model mice", "assay": "Von Frey assay, paw incision model (pre-treatment)", "format": "in vivo", "details": "pre-treatment 5 mg/kg i.p. for seven days; no drug after incision; vs saline", "experimental": "(§5) The inventors also tested whether YM155 could be used to prophylactically reduce pain experienced after acute post-operative injuries. For this, the inventors used the paw incision model and pre-treated animals at a dose of 5 mg/kg i.p, for seven days. Animals were not treated with drug after the incision.\nas §3, §4"}, "[6]": {"test_system": "paw incision model mice", "assay": "Locomotor activity after paw incision", "format": "in vivo", "details": "Day 1 post-paw incision; YM155 vs saline", "experimental": "as §5"}, "[7]": {"test_system": "mice", "assay": "Toxicity observed on dosing in mice", "format": "in vivo"}, "[8]": {"details": "intravenously-treated mice; cited from earlier work"}, "[9]": {"details": "CFA-injected female mice, 30-60 minutes after administration"}},
  "note": "“Also recorded” adds a separate entry of the source.",
  "data": [
    {"smiles": "COCCn1c2c([n+](Cc3cnccn3)c1C)C(=O)c1ccccc1C2=O", "note": "[YM155]", "values": [
      {"measurement": "thermal thresholds / Hargreaves' withdrawal latency, sustained", "setting": "[1]; CFA mice, ~24 hours post-injection, six consecutive days of administration (PD-D6)", "value": "increased thermal thresholds in a sustained fashion; also recorded: significantly higher withdrawal latency"},
      {"measurement": "thermal thresholds / Hargreaves' response times", "setting": "[1]; [9]", "value": "increased thermal thresholds; also recorded: increased Hargreaves' response times"},
      {"measurement": "mechanical thresholds (von Frey), sustained", "setting": "[2]; CFA mice, ~24 hours after administration, PD-D5, PD-D7, PD-D9", "value": "increased mechanical thresholds in a sustained fashion; also recorded: sustained recovery of mechanical thresholds"},
      {"measurement": "mechanical (von Frey) thresholds", "setting": "[2]; [9]", "value": "increased mechanical thresholds; also recorded: increased von Frey thresholds"},
      {"measurement": "post-CFA weight", "setting": "[3]", "value": "No changes in post-CFA weight were observed"},
      {"measurement": "interferon-induced mechanical hypersensitivity (mechanical thresholds)", "setting": "[4]; female mice, hindpaw IFNβ 300U/25 μL, concurrent YM155 5 mg/kg i.p., days 1 and 3 after IFNβ, 5 mg/kg", "value": "interrupted the onset of interferon-induced mechanical hypersensitivity; also recorded: no change in thresholds"},
      {"measurement": "mechanical thresholds, IFNβ group", "setting": "[4]; male mice, 2.5 mg/kg i.p. BID started one day after intraplantar injection, by day three", "value": "substantial increase in mechanical thresholds"},
      {"measurement": "mechanical hypersensitivity after paw incision", "setting": "[5]", "value": "significantly lower mechanical hypersensitivity after paw incision; also recorded: significant reduction in mechanical hypersensitivity"},
      {"measurement": "locomotion / locomotor activity", "setting": "[6]", "value": "No differences in locomotion were observed; also recorded: no changes in locomotor activity"},
      {"measurement": "toxicity", "setting": "[7]; female mice, 20 mg/kg", "value": "lethal toxicity"},
      {"measurement": "toxicity", "setting": "[7]; male mice, 2.5 mg/kg i.p. BID", "value": "did not observe toxicity"},
      {"measurement": "toxicity", "setting": "[7]; male mice, 5 mg/kg dose", "value": "increased sensitivity to the drug and subsequent toxicity"},
      {"measurement": "half-life", "setting": "[8]", "value": "one"}
    ]}
  ]
}
